Measured values from ChEMBL document CHEMBL3351537, “Design, synthesis and biological evaluation of 4-fluoropyrrolidine-2-carbonitrile and octahydrocyclopenta[b]pyrrole-2-carbonitrile derivatives as dipeptidyl peptidase IV inhibitors” (Eur J Med Chem, 2014).
Blank lines part the entries; values can stand above or below the molecule they belong to.

Columns and labels:
[1] = biological target: Dipeptidyl peptidase 2 (Homo sapiens, UniProt Q9UHL4); assay: Inhibition of DPP7 (unknown origin) expressed in baculovirus expression system using Nle-Pro-AMC as substrate by continuous fluorometric assay
[2] = biological target: Dipeptidyl peptidase 4 (Homo sapiens, UniProt P27487); assay: Inhibition of human recombinant DPP4 expressed in baculovirus expression system using Ala-Pro-AMC as substrate by continuous fluorometric assay
[3] = biological target: T1, Prolyl endopeptidase FAP (Homo sapiens, UniProt Q12884); assay: Inhibition of FAP (unknown origin) expressed in baculovirus expression system using Nle-Pro-AMC as substrate by continuous fluorometric assay
T1 sequence (Q12884 whole entry): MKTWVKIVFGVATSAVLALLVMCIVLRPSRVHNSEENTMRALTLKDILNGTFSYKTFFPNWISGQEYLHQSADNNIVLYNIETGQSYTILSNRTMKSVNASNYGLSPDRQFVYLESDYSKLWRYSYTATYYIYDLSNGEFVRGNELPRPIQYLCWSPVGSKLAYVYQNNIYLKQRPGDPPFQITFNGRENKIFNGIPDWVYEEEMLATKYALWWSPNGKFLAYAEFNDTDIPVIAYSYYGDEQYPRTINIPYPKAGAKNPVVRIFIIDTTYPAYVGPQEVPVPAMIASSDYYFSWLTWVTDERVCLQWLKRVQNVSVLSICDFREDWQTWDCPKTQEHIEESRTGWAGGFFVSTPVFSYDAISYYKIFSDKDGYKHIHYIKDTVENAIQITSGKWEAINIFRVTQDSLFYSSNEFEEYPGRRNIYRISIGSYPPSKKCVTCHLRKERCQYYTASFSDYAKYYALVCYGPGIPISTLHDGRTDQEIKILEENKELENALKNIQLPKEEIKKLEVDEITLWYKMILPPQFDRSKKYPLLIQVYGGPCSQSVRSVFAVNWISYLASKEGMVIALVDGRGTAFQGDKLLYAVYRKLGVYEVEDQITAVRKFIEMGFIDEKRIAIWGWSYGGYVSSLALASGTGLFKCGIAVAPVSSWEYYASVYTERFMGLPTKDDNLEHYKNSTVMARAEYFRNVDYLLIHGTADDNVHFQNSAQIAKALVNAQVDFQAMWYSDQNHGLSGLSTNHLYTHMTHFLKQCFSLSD

[4] = biological target: Dipeptidyl peptidase 8 (Homo sapiens, UniProt Q6V1X1); assay: Inhibition of DPP8 (unknown origin) expressed in baculovirus expression system using Ala-Pro-AMC as substrate by continuous fluorometric assay
[5] = biological target: Dipeptidyl peptidase 9 (Homo sapiens, UniProt Q86TI2); assay: Inhibition of DPP9 (unknown origin) expressed in baculovirus expression system using Ala-Pro-AMC as substrate by continuous fluorometric assay
Dipeptidyl peptidase 9, sequence (Q86TI2 whole entry): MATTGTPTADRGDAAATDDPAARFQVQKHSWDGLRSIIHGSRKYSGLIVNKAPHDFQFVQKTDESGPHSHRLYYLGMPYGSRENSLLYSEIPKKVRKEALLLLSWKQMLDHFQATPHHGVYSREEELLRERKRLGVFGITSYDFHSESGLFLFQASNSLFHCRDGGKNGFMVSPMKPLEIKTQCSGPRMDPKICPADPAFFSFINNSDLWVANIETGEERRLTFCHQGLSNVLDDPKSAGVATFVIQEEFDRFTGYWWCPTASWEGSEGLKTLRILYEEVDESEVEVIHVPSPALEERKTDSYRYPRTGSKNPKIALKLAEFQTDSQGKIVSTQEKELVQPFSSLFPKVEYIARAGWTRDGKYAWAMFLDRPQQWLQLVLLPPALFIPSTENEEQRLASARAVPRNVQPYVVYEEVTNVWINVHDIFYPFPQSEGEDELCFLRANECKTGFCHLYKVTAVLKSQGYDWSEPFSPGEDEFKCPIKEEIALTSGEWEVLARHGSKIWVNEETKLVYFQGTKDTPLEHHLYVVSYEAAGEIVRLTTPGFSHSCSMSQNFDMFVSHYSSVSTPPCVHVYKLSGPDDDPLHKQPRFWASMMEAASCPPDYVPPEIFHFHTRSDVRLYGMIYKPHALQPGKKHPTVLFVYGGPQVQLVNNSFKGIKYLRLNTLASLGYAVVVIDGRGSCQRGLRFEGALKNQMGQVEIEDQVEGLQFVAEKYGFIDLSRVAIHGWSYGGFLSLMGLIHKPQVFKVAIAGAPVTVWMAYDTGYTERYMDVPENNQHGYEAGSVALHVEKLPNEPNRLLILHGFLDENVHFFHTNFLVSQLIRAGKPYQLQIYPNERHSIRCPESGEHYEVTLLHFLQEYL

Dipeptidyl peptidase 8, sequence (Q6V1X1 whole entry): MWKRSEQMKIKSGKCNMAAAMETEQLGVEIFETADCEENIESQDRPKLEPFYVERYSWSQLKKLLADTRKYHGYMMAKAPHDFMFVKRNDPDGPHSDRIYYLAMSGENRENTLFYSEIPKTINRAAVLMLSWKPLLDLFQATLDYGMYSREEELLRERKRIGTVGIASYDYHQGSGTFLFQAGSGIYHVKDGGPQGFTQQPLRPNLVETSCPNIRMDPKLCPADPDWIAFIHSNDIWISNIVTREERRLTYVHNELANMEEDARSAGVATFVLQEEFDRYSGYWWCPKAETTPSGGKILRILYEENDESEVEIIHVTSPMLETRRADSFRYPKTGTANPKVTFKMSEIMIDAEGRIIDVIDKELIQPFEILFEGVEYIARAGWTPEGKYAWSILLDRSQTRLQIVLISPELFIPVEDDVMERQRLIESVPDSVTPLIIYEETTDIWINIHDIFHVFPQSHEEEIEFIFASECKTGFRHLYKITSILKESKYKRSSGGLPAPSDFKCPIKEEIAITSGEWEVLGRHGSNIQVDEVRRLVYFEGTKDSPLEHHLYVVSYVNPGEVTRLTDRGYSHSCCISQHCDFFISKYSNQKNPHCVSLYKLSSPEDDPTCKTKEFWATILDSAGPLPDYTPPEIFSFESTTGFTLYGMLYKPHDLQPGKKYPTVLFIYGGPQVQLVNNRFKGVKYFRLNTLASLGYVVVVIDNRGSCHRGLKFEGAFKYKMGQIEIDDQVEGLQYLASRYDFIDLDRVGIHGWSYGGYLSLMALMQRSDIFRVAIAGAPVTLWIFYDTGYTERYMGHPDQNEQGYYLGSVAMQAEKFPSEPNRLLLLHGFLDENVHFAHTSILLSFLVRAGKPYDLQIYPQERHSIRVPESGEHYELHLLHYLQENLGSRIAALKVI
Dipeptidyl peptidase 4, sequence (P27487 whole entry): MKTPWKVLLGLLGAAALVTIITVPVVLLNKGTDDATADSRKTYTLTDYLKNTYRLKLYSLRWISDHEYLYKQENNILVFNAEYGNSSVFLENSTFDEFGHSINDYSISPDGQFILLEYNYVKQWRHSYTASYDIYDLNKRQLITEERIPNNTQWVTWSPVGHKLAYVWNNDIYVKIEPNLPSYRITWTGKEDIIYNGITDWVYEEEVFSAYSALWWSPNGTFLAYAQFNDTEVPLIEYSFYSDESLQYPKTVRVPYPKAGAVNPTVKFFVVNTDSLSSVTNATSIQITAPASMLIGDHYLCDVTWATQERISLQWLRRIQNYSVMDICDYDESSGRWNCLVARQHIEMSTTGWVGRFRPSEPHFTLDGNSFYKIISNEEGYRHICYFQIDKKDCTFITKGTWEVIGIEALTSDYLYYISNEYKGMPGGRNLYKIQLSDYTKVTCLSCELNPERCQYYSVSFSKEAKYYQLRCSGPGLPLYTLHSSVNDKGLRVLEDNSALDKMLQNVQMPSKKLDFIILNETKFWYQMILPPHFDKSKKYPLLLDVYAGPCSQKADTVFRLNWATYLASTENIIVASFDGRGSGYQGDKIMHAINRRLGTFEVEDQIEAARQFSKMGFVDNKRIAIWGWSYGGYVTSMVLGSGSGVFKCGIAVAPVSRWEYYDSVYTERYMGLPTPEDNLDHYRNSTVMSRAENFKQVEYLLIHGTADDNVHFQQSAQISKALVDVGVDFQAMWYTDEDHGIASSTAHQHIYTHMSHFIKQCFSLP

- IC50 [1]: Not Active
Compound: N#C[C@@H]1C[C@@H]2CCC[C@@H]2N1C(=O)C[C@H](N)Cc1ccccc1Cl

- IC50 [2]: Not Active
Compound: COc1ccc(C[C@@H](N)CC(=O)N2[C@H](C#N)C[C@@H]3CCC[C@@H]32)cc1

- IC50 [3]: Not Active
- IC50 [1]: Not Active
- IC50 [4]: Not Active
- IC50 [5]: 108 µM
Compound: N#C[C@@H]1C[C@@H]2CCC[C@@H]2N1C(=O)C[C@H](N)Cc1ccccc1

- IC50 ([1]; read-out: IC50): 193 µM
Compound: N#C[C@@H]1C[C@H](F)CN1C(=O)C[C@H](N)Cc1ccc(F)cc1

- IC50 [1]: Not Active
Compound: Cc1ccccc1C[C@@H](N)CC(=O)N1C[C@@H](F)C[C@H]1C#N

- IC50 ([3]; read-out: IC50): 154 µM
Compound: N#C[C@@H]1C[C@@H]2CCC[C@@H]2N1C(=O)C[C@H](N)Cc1ccc(F)cc1

- IC50 ([1]; read-out: IC50): 130 µM
Compound: N#C[C@@H]1C[C@H](F)CN1C(=O)C[C@H](N)Cc1ccccc1Cl
